Data taken from patent publication US6525001B1, “Substituted pyrimidine and pyridine herbicides” (Mid-American Commercialization Corporation, priority 1997, dated 2003).

Tests used:
Experiment in all cases: Test B pre-/postemergence
Type in all cases: in vivo
Set-up in all cases: key: 0 is no effect; 10 is complete control
[1] = test system: velvetleaf (Abutilon theophrasti)
Outline: (§1)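 Response scores run from 0, meaning no effect, to 10, meaning complete control, assigned by eye relative to controls twelve to sixteen days after spraying. Treatment was both preemergence on planted seed and postemergence on plants at the 1- to 4-leaf stage.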

[2] = test system: pigweed (Amaranthus retroflexus)
Outline: as §1

[3] = test system: wheat (Triticum aestivum)
Outline: as §1

[4] = test system: blackgrass (Alopecurus myosuroides)
Outline: as §1

[5] = test system: cocklebur (Xanthium strumarium)
Outline: as §1

soybean (Glycine max) = test system: soybean (Glycine max)
Outline: as §1

[6] = test system: bedstraw (Galium aparine)
Outline: as §1

rape (Brassica napus) = test system: rape (Brassica napus)
Outline: as §1

[7] = test system: sugar beet (Beta vulgaris)
Outline: as §1

[8] = test system: crabgrass (Digitaria sanguinalis)
Outline: as §1

[9] = test system: momingglory (Ipomoea hederacea)
Outline: as §1

[10] = test system: giant foxtail (Setaria faberii)
Outline: as §1

[11] = test system: broadleaf signalgrass (Brachiaria decumbens)
Outline: as §1

corn (Zea mays) = test system: corn (Zea mays)
Outline: as §1

[12] = Preemergence, Rate 62 g/ha, scale of 0 to 10

In the case of Cc1cnc(-n2ccc(C(F)(F)F)n2)nc1C(=O)c1ccc(C(F)(F)F)cc1 [Compound 65], the “Plant response rating, Velvetleaf” value [1, 12] is reported as 0, the “Velvetleaf plant response rating” value ([1]; Rate 62 g/ha, Postemergence) is reported as 1 and the “Velvetleaf plant response rating” value ([1]; Rate 125 g/ha, Postemergence) is reported as 1. For the same compound, the “Plant response rating, Velvetleaf” value ([1]; Rate 125 g/ha, Preemergence) was 0, the “Plant response rating, Velvetleaf” value ([1]; Rate 250 g/ha, Postemergence) was 2 and the “Plant response rating, Velvetleaf” value ([1]; Rate 250 g/ha, Preemergence) was 0. For the same compound, the “Plant response rating, Velvetleaf” value ([1]; Rate 500 g/ha, Postemergence) was 2, the “Plant response rating, Velvetleaf” value ([1]; Rate 500 g/ha, Preemergence) was 1 and the “Plant response rating, Redroot pigweed” value [2, 12] was 0. For the same compound, the “Redroot pigweed plant response rating” value ([2]; Rate 62 g/ha, Postemergence) was 2, the “Redroot pigweed plant response rating” value ([2]; Rate 125 g/ha, Postemergence) was 3 and the “Plant response rating, Redroot pigweed” value ([2]; Rate 125 g/ha, Preemergence) was 0. The “Plant response rating, Redroot pigweed” value ([2]; Rate 250 g/ha, Postemergence) was 6, the “Plant response rating, Redroot pigweed” value ([2]; Rate 250 g/ha, Preemergence) was 0 and the “Plant response rating, Redroot pigweed” value ([2]; Rate 500 g/ha, Postemergence) was 7. The “Plant response rating, Redroot pigweed” value ([2]; Rate 500 g/ha, Preemergence) was 0, the “Plant response rating, Wheat” value [3, 12] was 0 and the “Wheat plant response rating” value ([3]; Rate 62 g/ha, Postemergence) was 1. For the same compound, the “Wheat plant response rating” value ([3]; Rate 125 g/ha, Postemergence) was 1, the “Plant response rating, Wheat” value ([3]; Rate 125 g/ha, Preemergence) was 0 and the “Plant response rating, Wheat” value ([3]; Rate 250 g/ha, Postemergence) was 2. For the same compound, the “Plant response rating, Wheat” value ([3]; Rate 250 g/ha, Preemergence) was 0, the “Plant response rating, Wheat” value ([3]; Rate 500 g/ha, Postemergence) was 2 and the “Plant response rating, Wheat” value ([3]; Rate 500 g/ha, Preemergence) was 0. For the same compound, the “Plant response rating, Blackgrass” value [4, 12] was 0, the “Blackgrass plant response rating” value ([4]; Rate 62 g/ha, Postemergence) was 0 and the “Blackgrass plant response rating” value ([4]; Rate 125 g/ha, Postemergence) was 0. For the same compound, the “Plant response rating, Blackgrass” value ([4]; Rate 125 g/ha, Preemergence) was 0, the “Plant response rating, Blackgrass” value ([4]; Rate 250 g/ha, Postemergence) was 0 and the “Plant response rating, Blackgrass” value ([4]; Rate 250 g/ha, Preemergence) was 0. The “Plant response rating, Blackgrass” value ([4]; Rate 500 g/ha, Postemergence) was 0, the “Plant response rating, Blackgrass” value ([4]; Rate 500 g/ha, Preemergence) was 0 and the “Plant response rating, Cocklebur” value [5, 12] was 0. For the same compound, the “Cocklebur plant response rating” value ([5]; Rate 62 g/ha, Postemergence) was 1, the “Cocklebur plant response rating” value ([5]; Rate 125 g/ha, Postemergence) was 1 and the “Plant response rating, Cocklebur” value ([5]; Rate 125 g/ha, Preemergence) was 0. The “Plant response rating, Cocklebur” value ([5]; Rate 250 g/ha, Postemergence) was 1, the “Plant response rating, Cocklebur” value ([5]; Rate 250 g/ha, Preemergence) was 0 and the “Plant response rating, Cocklebur” value ([5]; Rate 500 g/ha, Postemergence) was 2. The “Plant response rating, Cocklebur” value ([5]; Rate 500 g/ha, Preemergence) was 0, the “Plant response rating, Soybean” value (soybean (Glycine max); [12]) was 0 and the “Soybean plant response rating” value (soybean (Glycine max); Rate 62 g/ha, Postemergence) was 1. For the same compound, the “Soybean plant response rating” value (soybean (Glycine max); Rate 125 g/ha, Postemergence) was 2, the “Plant response rating, Soybean” value (soybean (Glycine max); Rate 125 g/ha, Preemergence) was 0 and the “Plant response rating, Soybean” value (soybean (Glycine max); Rate 250 g/ha, Postemergence) was 2. The “Plant response rating, Soybean” value (soybean (Glycine max); Rate 250 g/ha, Preemergence) was 0, the “Plant response rating, Soybean” value (soybean (Glycine max); Rate 500 g/ha, Postemergence) was 2 and the “Plant response rating, Soybean” value (soybean (Glycine max); Rate 500 g/ha, Preemergence) was 0. The “Plant response rating, Bedstraw” value [6, 12] was 0, the “Bedstraw plant response rating” value ([6]; Rate 62 g/ha, Postemergence) was 0 and the “Bedstraw plant response rating” value ([6]; Rate 125 g/ha, Postemergence) was 3. For the same compound, the “Plant response rating, Bedstraw” value ([6]; Rate 125 g/ha, Preemergence) was 0, the “Plant response rating, Bedstraw” value ([6]; Rate 250 g/ha, Postemergence) was 7 and the “Plant response rating, Bedstraw” value ([6]; Rate 250 g/ha, Preemergence) was 0. The “Plant response rating, Bedstraw” value ([6]; Rate 500 g/ha, Postemergence) was 7, the “Plant response rating, Bedstraw” value ([6]; Rate 500 g/ha, Preemergence) was 0 and the “Plant response rating, Rape” value (rape (Brassica napus); [12]) was 0. The “Rape plant response rating” value (rape (Brassica napus); Rate 62 g/ha, Postemergence) was 1, the “Rape plant response rating” value (rape (Brassica napus); Rate 125 g/ha, Postemergence) was 1 and the “Plant response rating, Rape” value (rape (Brassica napus); Rate 125 g/ha, Preemergence) was 0. The “Plant response rating, Rape” value (rape (Brassica napus); Rate 250 g/ha, Postemergence) was 2, the “Plant response rating, Rape” value (rape (Brassica napus); Rate 250 g/ha, Preemergence) was 0 and the “Plant response rating, Rape” value (rape (Brassica napus); Rate 500 g/ha, Postemergence) was 2. For the same compound, the “Plant response rating, Rape” value (rape (Brassica napus); Rate 500 g/ha, Preemergence) was 0, the “Plant response rating, Sugarbeets” value [7, 12] was 0 and the “Sugarbeets plant response rating” value ([7]; Rate 62 g/ha, Postemergence) was 7. The “Sugarbeets plant response rating” value ([7]; Rate 125 g/ha, Postemergence) was 7, the “Plant response rating, Sugarbeets” value ([7]; Rate 125 g/ha, Preemergence) was 0 and the “Plant response rating, Sugarbeets” value ([7]; Rate 250 g/ha, Postemergence) was 8. For the same compound, the “Plant response rating, Sugarbeets” value ([7]; Rate 250 g/ha, Preemergence) was 0, the “Plant response rating, Sugarbeets” value ([7]; Rate 500 g/ha, Postemergence) was 8 and the “Plant response rating, Sugarbeets” value ([7]; Rate 500 g/ha, Preemergence) was 0. For the same compound, the “Plant response rating, Crabgrass” value [8, 12] was 0, the “Crabgrass plant response rating” value ([8]; Rate 62 g/ha, Postemergence) was 1 and the “Crabgrass plant response rating” value ([8]; Rate 125 g/ha, Postemergence) was 1. The “Plant response rating, Crabgrass” value ([8]; Rate 125 g/ha, Preemergence) was 0, the “Plant response rating, Crabgrass” value ([8]; Rate 250 g/ha, Postemergence) was 1 and the “Plant response rating, Crabgrass” value ([8]; Rate 250 g/ha, Preemergence) was 0. For the same compound, the “Plant response rating, Crabgrass” value ([8]; Rate 500 g/ha, Postemergence) was 1, the “Plant response rating, Crabgrass” value ([8]; Rate 500 g/ha, Preemergence) was 0 and the “Plant response rating, Morningglory” value [9, 12] was 0. The “Morningglory plant response rating” value ([9]; Rate 125 g/ha, Postemergence) was 1, the “Plant response rating, Morningglory” value ([9]; Rate 125 g/ha, Preemergence) was 0 and the “Plant response rating, Morningglory” value ([9]; Rate 250 g/ha, Postemergence) was 8. The “Plant response rating, Morningglory” value ([9]; Rate 250 g/ha, Preemergence) was 0, the “Plant response rating, Morningglory” value ([9]; Rate 500 g/ha, Postemergence) was 10 and the “Plant response rating, Morningglory” value ([9]; Rate 500 g/ha, Preemergence) was 5. The “Plant response rating, Giant foxtail” value [10, 12] was 0, the “Giant foxtail plant response rating” value ([10]; Rate 62 g/ha, Postemergence) was 1 and the “Giant foxtail plant response rating” value ([10]; Rate 125 g/ha, Postemergence) was 1. For the same compound, the “Plant response rating, Giant foxtail” value ([10]; Rate 125 g/ha, Preemergence) was 0, the “Plant response rating, Giant foxtail” value ([10]; Rate 250 g/ha, Postemergence) was 1 and the “Plant response rating, Giant foxtail” value ([10]; Rate 250 g/ha, Preemergence) was 0. For the same compound, the “Plant response rating, Giant foxtail” value ([10]; Rate 500 g/ha, Postemergence) was 1, the “Plant response rating, Giant foxtail” value ([10]; Rate 500 g/ha, Preemergence) was 0 and the “B. signalgrass plant response rating” value ([11]; Rate 62 g/ha, Postemergence) was 1. For the same compound, the “B. signalgrass plant response rating” value ([11]; Rate 62 g/ha, Preemergence) was 0, the “B. signalgrass plant response rating” value ([11]; Rate 125 g/ha, Postemergence) was 1 and the “Plant response rating, B. signalgrass” value ([11]; Rate 125 g/ha, Preemergence) was 0. For the same compound, the “Plant response rating, B. signalgrass” value ([11]; Rate 250 g/ha, Postemergence) was 1, the “Plant response rating, B. signalgrass” value ([11]; Rate 250 g/ha, Preemergence) was 1 and the “Plant response rating, B. signalgrass” value ([11]; Rate 500 g/ha, Postemergence) was 1. For the same compound, the “Plant response rating, B. signalgrass” value ([11]; Rate 500 g/ha, Preemergence) was 2, the “Plant response rating, Corn” value (corn (Zea mays); [12]) was 0 and the “Corn plant response rating” value (corn (Zea mays); Rate 62 g/ha, Postemergence) was 1. For the same compound, the “Corn plant response rating” value (corn (Zea mays); Rate 125 g/ha, Postemergence) was 1, the “Plant response rating, Corn” value (corn (Zea mays); Rate 125 g/ha, Preemergence) was 0 and the “Plant response rating, Corn” value (corn (Zea mays); Rate 250 g/ha, Postemergence) was 1. The “Plant response rating, Corn” value (corn (Zea mays); Rate 250 g/ha, Preemergence) was 0, the “Plant response rating, Corn” value (corn (Zea mays); Rate 500 g/ha, Postemergence) was 1 and the “Plant response rating, Corn” value (corn (Zea mays); Rate 500 g/ha, Preemergence) was 0.
